The results in this text go back to US12065654B2, “Plants having increased tolerance to herbicides” (BASF SE, priority 2014, dated 2024).

Assay [1] relates to Arabidopsis overexpression line Picrophilus HPPD. Put plainly: Germination assay in 48-well plates. It is filed as in vivo, Arabidopsis thaliana. The following applies: IC50 transgenic / wildtype, mean of 5 T2 events. Here is the method: (§1) Depending on the species, the plants are kept at 10-25° C. or 20-35° C. The test period extends over 3 weeks. During this time, the plants are tended and their response to the individual treatments is evaluated. Herbicide injury evaluations are taken at 2 and 3 weeks after treatment. Plant injury is rated on a scale of 0 to 9, 0 being no injury and 9 being complete death. Tolerance to HPPD-inhibiting, preferably pyrazolone, isoxazole, or triketone derivative herbicides can also be assessed in Arabidopsis. In this case transgenic Arabidopsis thaliana plants are assayed for improved tolerance to HPPD-inhibiting, preferably pyrazolone, isoxazole, or triketone derivative herbicides in 48-well plates. Seeds are surface sterilized by stirring for 5 min in ethanol+water (70+30 by volume), rinsing one time with ethanol+water (70+30 by volume) and two times with a sterile, deionized water. The seeds are resuspended in 0.1% agar dissolved in water (w/v). Four to five seeds per well are plated on solid nutrient medium consisting of half-strength Murashige Skoog nutrient solution, pH 5.8 (Murashige and Skoog (1962) Physiologia Plantarum 15: 473-497). Compounds are dissolved in dimethylsulfoxid (DMSO) and added to the medium prior solidification (final DMSO concentration 0.1%). Multi well plates are incubated in a growth chamber at 22° C., 75% relative humidity and 110 μmol Phot*m−2*s−1 with 14:10 h light:dark photoperiod. Seven to ten days after seeding growth inhibition is evaluated by comparison to wild type plants. Tolerance factor is calculated by dividing the plant growth IC50 value of transgenic plants containing a HPPD and/or HST sequence by that of wildtype plants.

For assay [2], the system named is Arabidopsis overexpression line Hordeum L320Q. Put plainly: Germination assay in 48-well plates. It is filed as in vivo, Arabidopsis thaliana. The following applies: IC50 transgenic / wildtype, mean of 5 T2 events. How it is done:
as §1

The subject of assay [3] is Arabidopsis overexpression line Arabidopsis M335H, P336A, E363Q. Description: Germination assay in 48-well plates. It is filed as in vivo, Arabidopsis thaliana. The following applies: IC50 transgenic / wildtype, mean of 5 T2 events. Here is the method: as §1
Assay [4] has as its system Arabidopsis overexpression line Hordeum L320H, P321A. Description: Germination assay in 48-well plates. It is filed as in vivo, Arabidopsis thaliana. The following applies: IC50 transgenic / wildtype, mean of 5 T2 events. How it is done:
as §1

The test system of assay [5] is Arabidopsis overexpression line Arabidopsis M335H. Put plainly: Germination assay in 48-well plates. The following applies: IC50 transgenic / wildtype, mean of 5 T2 events. It is filed as in vivo, Arabidopsis thaliana. How it is done:
as §1

For assay [6], the system named is Arabidopsis overexpression line Rhodococcus HPPD2. Description: Germination assay in 48-well plates. The following applies: IC50 transgenic / wildtype, mean of 5 T2 events. It is filed as in vivo, Arabidopsis thaliana. How it is done: as §1
The subject of assay [7] is Arabidopsis overexpression line Arabidopsis F381I. Description: Germination assay in 48-well plates. The following applies: IC50 transgenic / wildtype, mean of 5 T2 events. It is filed as in vivo, Arabidopsis thaliana. How it is done: as §1
The test system of assay [8] is transgenic soybean plants AtHPPD Q293S, event SDS-9928. Put plainly: Greenhouse testing of soybean plants. It is filed as in vivo, Glycine max. The following applies: soybean AtHPPD Q293S SDS-9928, 14 days, average of 8 T1 individuals. Here is the method: (§2) Transgenic plants expressing heterologous HPPD or HST enzymes are tested for tolerance against HPPD-inhibiting, preferably pyrazolone, isoxazole, or triketone derivative herbicides in greenhouse experiments.
(§3) For post emergence treatment, the test plants are first grown to a height of 3 to 15 cm, depending on the plant habit, and only then treated with the herbicides. For this purpose, the test plants are either sown directly and grown in the same containers, or they are first grown separately and transplanted into the test containers a few days prior to treatment.
(§4) For testing of T0 plants, cuttings can be used. In the case of soybean plants, an optimal shoot for cutting is about 7.5 to 10 cm tall, with at least two nodes present. Each cutting is taken from the original transformant (mother plant) and dipped into rooting hormone powder (indole-3-butyric acid, IBA). The cutting is then placed in oasis wedges inside a bio-dome. Wild type cuttings are also taken simultaneously to serve as controls. The cuttings are kept in the bio-dome for 5-7 days and then transplanted to pots and then acclimated in the growth chamber for two more days. Subsequently, the cuttings are transferred to the greenhouse, acclimated for approximately 4 days, and then subjected to spray tests as indicated.
as §1
(§5) Transgenic soy plants were sprayed with a range of doses from 6.25-100 g/ha with an HPPD-inhibiting herbicide and injury evaluations were taken two weeks after treatment. […] Compared to the untransformed wild-type, plants comprising polynucleotides encoding for Arabidopsis HPPD wild-type or mutated versions thereof were less susceptible to Inhibitor 1.

The subject of assay [9] is transgenic soybean plants AtHPPD I393L L385V, event SDS-9908. Put plainly: Greenhouse testing of soybean plants. It is filed as in vivo, Glycine max. The following applies: soybean AtHPPD I393L L385V SDS-9908, 14 days, average of 8 T1 individuals. Here is the method:
as §2, §3, §4, §1, §5

The test system of assay [10] is transgenic soybean plants AtHPPD, event SDS-10248. Put plainly: Greenhouse testing of soybean plants. It is filed as in vivo, Glycine max. The following applies: for Injury evaluation (bleaching phenotype, scale of 1-100): soybean AtHPPD SDS-10248, 14 days, average of 8 T1 individuals. How it is done:
as §2, §3, §4, §1, §5

For `Cc1c(C(=O)c2cnn(C)c2O)ccc(S(C)(=O)=O)c1C1=NOCC1` [Inhibitor 1, [3-(4,5-dihydroisoxazol-3-yl)-2-methyl-4-methylsulfonyl-phenyl]-(5-hydroxy-1-methyl-pyrazol-4-yl)methanone], the Tolerance factor is 10 in assay [1]; 100 in assay [2]; 25 in assay [3]; 300 in [4]; 10 in assay [5]; 32 in assay [6]. Further, the Tolerance factor in [7] turned out to be 90. Also, the “Injury evaluation (bleaching phenotype, scale of 1-100)” value in [8] (6.25 g/ha) is on record as 2%; in [8] (25 g/ha) it was 40%; in assay [8] (100 g/ha), 79%; in assay [9] (6.25 g/ha) it was 0%; in assay [9] (25 g/ha) it was 8%; in [9] (100 g/ha), 54%. For the same compound, the “Injury evaluation (bleaching phenotype, scale of 1-100)” value in [10] (6.25 g/ha) stood at 2%; in assay [10] (25 g/ha) it was 3%; in [10] (100 g/ha), 44%. In addition, the “fold tolerance compared to untransformed wild-type” value in assay [10] (soy plants with SEQ ID NO:53, 100 g/ha) is 2 fold.
